pEC50, pIC50, pKi: −log10 of the molar value. Where two headings read alike, the source gives them in different places.
How the values were obtained:
LXR α LBD protein [1] = target: T1, LXR α LBD protein (Homo sapiens (Human), UniProt Q13133); assay: LXR α radioligand binding assay (SPA, competition with [3H]TO901317); details: read-out: LXRα Binding Ki
LXR β LBD protein [2] = target: T2, LXR β LBD protein (Homo sapiens (Human), UniProt P55055); assay: biochemical; format: binding; details: read-out: LXRβ Binding Ki
Target sequence in this assay (P55055 222-460 limits assumed): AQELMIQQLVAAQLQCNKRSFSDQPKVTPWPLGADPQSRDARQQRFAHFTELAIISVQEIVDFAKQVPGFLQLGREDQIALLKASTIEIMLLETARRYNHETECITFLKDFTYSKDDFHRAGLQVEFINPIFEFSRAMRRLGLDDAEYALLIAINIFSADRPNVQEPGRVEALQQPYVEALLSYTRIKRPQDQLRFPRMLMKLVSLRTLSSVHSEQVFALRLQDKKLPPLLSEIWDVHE

LXR β LBD protein [3] = target: T2, LXR β LBD protein; assay: biochemical; format: biochemical; details: for pEC50: read-out: FRET LXRβ EC50
Experimental: Two μL of the DMSO solutions were transferred to the plate and 38 μL of 10 nM LXRα-LBD or LXRβ-LBD (2×) were added immediately to the wells. The plate was shaken for 5 min at rt on an orbital micro shaker (DPC MicroMix® 5), after which 40 μL of 200 nM fluorescein-SRC2-3 peptide and 20 nM Terbium-anti-GST-antibody (Cat# PV3550, Life Technologies, Grand Island, N.Y.) solution (4×) were added to all. The plate was sealed and shaken for 2 min at rt, and incubated at rt for 2 h without agitation. […] The delay and window times were set at 100 and 200 microseconds, respectively. […] The percent control vs. compound concentration data were fit into a four-parameter model, and EC50 values were calculated from the fit as the concentrations corresponding to the inflection points on the concentration-response curves.
Target sequence in this assay (P55055 222-460): as the sequence (P55055 222-460 limits assumed) above

[4] = target: Gal4 DNA binding domain fused to the LBD of LXRβ in HEK293 cells (Homo sapiens (Human), UniProt P55055); assay: cell-based
Gal4 DNA binding domain fused to the LBD of LXRβ in HEK293 cells, sequence (P55055 222-460 limits assumed): as above

[5] = target: T3, Gal4 DNA binding domain fused to the LBD of LXRα in HEK293 cells (Homo sapiens (Human), UniProt Q13133); assay: LXR luciferase transcriptional reporter gene assay, agonist mode, LXRα; format: cell-based
T3 sequence (Q13133 209-447): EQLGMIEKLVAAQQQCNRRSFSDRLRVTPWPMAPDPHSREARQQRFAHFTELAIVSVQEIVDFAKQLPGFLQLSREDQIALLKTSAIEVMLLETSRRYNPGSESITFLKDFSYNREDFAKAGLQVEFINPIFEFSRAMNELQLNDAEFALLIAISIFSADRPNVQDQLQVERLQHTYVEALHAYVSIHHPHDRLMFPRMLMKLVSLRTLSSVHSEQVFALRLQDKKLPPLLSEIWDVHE

LXR α LBD protein [6] = target: T1, LXR α LBD protein; assay: Human LXRα coactivator recruitment FRET assay, agonist mode; format: biochemical
Outline: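 LXRα- or LXRβ-LBD at 10 nM (2×) mixed with compound in DMSO, then fluorescein-SRC2-3 peptide 200 nM and Tb-anti-GST antibody 20 nM (4×) added; 2 h at rt. Time-resolved FRET read, 100 µs delay, 200 µs window; EC50 from four-parameter fit of percent control.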

[7] = target: T3, Gal4 DNA binding domain fused to the LBD of LXRα in HEK293 cells; assay: LXR luciferase transcriptional reporter gene assay, antagonist mode (200 nM T0901317), LXRα; format: cell-based; details: for pIC50: antagonist mode, 200 nM T0901317, HEK293 reporter gene assay, read-out: Cell LXRα IC50
[8] = agonist mode, read-out: Cell LXRα EC50
[9] = Biological Test Example 3, agonist mode

T1 sequence (Q13133 209-447): as above

Compound	pKi (LXR α LBD protein [1])	pKi (LXR β LBD protein [2])	pEC50 (LXR β LBD protein [3])	pEC50 [4]	Cell LXRα efficacy [5]	pEC50 ([5]; read-out: Cell LXRα EC50)	pEC50 (LXR α LBD protein [6]; agonist mode)	FRET LXRα efficacy (LXR α LBD protein [6]; agonist mode) [%]	pEC50 [5, 8]	further results
CS(=O)(=O)c1cccc(N2CCN(Cc3ccc(OC(F)(F)F)cc3)[C@@H](c3ccccc3)C2)c1 (single isomer, unassigned) [46-23]	5.98	6.95	6.15	5.84	4367 (45) %	5.36	5.15	47	–	FRET LXRβ efficacy (LXR β LBD protein [3]): 710 (57) %; Cell LXRβ efficacy [4]: 1432 (29) %
Cc1ccccc1[C@H]1CN(c2cccc(S(C)(=O)=O)c2)CCN1Cc1ccc(C(F)(F)F)nc1 (single isomer, unassigned) [46-46]	< 5.48	5.70	5.92	5.70	–	–	5.17	30	< 4.70	FRET LXRβ efficacy (LXR β LBD protein [3]; agonist mode): 1214 (51) %; Cell LXRβ efficacy ([4]; agonist mode): 1989 (4) %
CS(=O)(=O)c1cccc(N2CCN(Cc3ccc(C(F)(F)F)nc3)[C@@H](c3ccccc3Cl)C2)c1 (single isomer, unassigned) [46-57]	6.73	7.21	7.26	6.42	1244 (42) %	5.91	6.30	41	–	FRET LXRβ efficacy (LXR β LBD protein [3]): 55 (56) %; Cell LXRβ efficacy [4]: 383 (38) %
CS(=O)(=O)c1cccc(N2CCN(C[C@@H]3CCC[C@@H](C(F)(F)F)C3)[C@@H](c3ccc(F)cc3)C2)c1 (single isomer, unassigned) [48-39]	–	–	–	–	–	–	–	–	< 4.70	Cell LXRα efficacy [7]: 78 (86) %; pIC50 [7]: 7.11
CS(=O)(=O)c1cccc(N2CCN(C[C@@H]3CCC[C@H](C(F)(F)F)C3)[C@@H](c3ccc(F)cc3)C2)c1 (single isomer, unassigned) [48-41]	6.71	–	–	–	1459 (7) %	–	–	–	5.84	Cell LXRα efficacy [7]: 421 (83) %; pIC50 [7]: 6.38
CS(=O)(=O)c1cccc(N2CCN(C[C@H]3CCN(CC(F)(F)F)C3)[C@@H](c3ccccc3)C2)c1 (single isomer, unassigned) [48-63]	< 5.48	–	5.81	< 4.70	–	–	–	–	–	pKi (LXR β LBD protein [2]; Biological Test Example 1): < 5.60; FRET LXRβ efficacy (LXR β LBD protein [3]; [9]): 1553 (30) %; pEC50 ([5]; Biological Test Example 2, agonist mode, read-out: Cell LXRα EC50): < 4.70; pEC50 (LXR α LBD protein [6]; [9]): 4.93; FRET LXRα efficacy (LXR α LBD protein [6]; [9]): 14%
CS(=O)(=O)c1cc(N2CCN(C[C@H]3CC[C@H](C(F)(F)F)CC3)[C@@H](c3ccccc3)C2)ccc1C#N (single isomer, unassigned) [50-4]	5.57	–	–	–	3065 (19) %	5.51	–	–	–	pKi (LXR β LBD protein [2]; Biological Test Example 1): 6.29; FRET LXRβ efficacy (LXR β LBD protein [3]; [9]): 82%; pEC50 (LXR β LBD protein [3]; [9]): 5.79; Cell LXRβ efficacy ([4]; Biological Test Example 2, agonist mode): 23%; pEC50 ([4]; Biological Test Example 2, agonist mode, read-out: Cell LXRβ EC50): 5.89; pEC50 (LXR α LBD protein [6]; [9]): 5.02; FRET LXRα efficacy (LXR α LBD protein [6]; [9]): 69%
CC(C)[C@@H]1CN(c2ccc(C#N)c(S(C)(=O)=O)c2)CCN1c1nccc(C(F)(F)F)n1 [7-17, (R)-4-(3-isopropyl-4-(4-(trifluoromethyl)pyrimidin-2-yl)piperazin-1-yl)-2-(methylsulfonyl)benzonitrile]	–	–	–	–	1115 (69) %	–	–	–	5.95	pIC50 [7]: 5.22
CS(=O)(=O)c1cccc(N2CCN(c3nccc(C(F)(F)F)n3)[C@H](c3ccc(F)cc3)C2)c1 [8-1, (R)-2-(2-(4-fluorophenyl)-4-(3-(methylsulfonyl)phenyl)piperazin-1-yl)-4-(trifluoromethyl)pyrimidine]	6.34	7.44	7.21	6.31	2160 (16) %	–	6.18	41	5.67	FRET LXRβ efficacy (LXR β LBD protein [3]; agonist mode): 62 (75) %; Cell LXRβ efficacy ([4]; agonist mode): 493 (31) %
CC(C)(O)c1ccc(CN2CCN(c3cccc(S(C)(=O)=O)c3)C[C@@H]2c2ccccc2)cc1 [10-12, (S)-2-(4-((4-(3-(methylsulfonyl)phenyl)-2-phenylpiperazin-1-yl)methyl)phenyl)propan-2-ol]	< 5.48	< 5.60	5.94	< 4.70	–	< 4.70	5.86	18	–	FRET LXRβ efficacy (LXR β LBD protein [3]; agonist mode): 1141 (33) %
COCCN(C)Cc1cnc(N2CCN(c3ccc(F)c(S(C)(=O)=O)c3)C[C@H]2C(C)C)nc1C(F)(F)F [15-10, (R)-N-((2-(4-(4-fluoro-3-(methylsulfonyl)phenyl)-2-isopropylpiperazin-1-yl)-4-(trifluoromethyl)pyrimidin-5-yl)methyl)-2-methoxy-N-methylethan-1-amine]	6.02	–	–	–	5353 (16) %	–	–	–	5.27	pIC50 [7]: 5.79
CC(C)c1ccc(CN2CCN(c3cccc(S(C)(=O)=O)c3)C[C@H]2c2ccccc2)cc1 [46-7, (R)-1-(4-isopropylbenzyl)-4-(3-(methylsulfonyl)phenyl)-2-phenylpiperazine]	< 5.48	< 5.60	< 4.30	< 4.70	–	< 4.70	< 4.30	–	–	–
CS(=O)(=O)c1cccc(N2CCN(Cc3ccc(OC(F)F)cc3)[C@@H](c3ccccc3)C2)c1 [46-11, (S)-1-(4-(difluoromethoxy)benzyl)-4-(3-(methylsulfonyl)phenyl)-2-phenylpiperazine]	5.48	6.35	6.22	< 4.70	3753 (7) %	–	4.76	–	–	FRET LXRβ efficacy (LXR β LBD protein [3]): 600 (20) %; pEC50 [5]: 5.43; FRET LXRα efficacy (LXR α LBD protein [6]): 17300 (33) %
CC(C)c1ccc(CN2CCN(c3cccc(S(C)(=O)=O)c3)CC2c2ccccc2)cn1 (centres unmarked) [46-42, 1-((6-isopropylpyridin-3-yl)methyl)-4-(3-(methylsulfonyl)phenyl)-2-phenylpiperazine]	< 5.48	< 5.60	5.98	5.23	–	–	6.01	53	< 4.70	FRET LXRβ efficacy (LXR β LBD protein [3]; agonist mode): 1048 (53) %; Cell LXRβ efficacy ([4]; agonist mode): 5895 (9) %
CS(=O)(=O)c1cc(F)cc(N2CCN(Cc3ccc(C(F)(F)F)nc3)C(c3ccccc3)C2)c1 (centres unmarked) [46-53, 4-(3-fluoro-5-(methylsulfonyl)phenyl)-2-phenyl-1-((6-(trifluoromethyl)pyridin-3-yl)methyl)piperazine]	< 5.48	5.82	6.03	5.48	11138 (23) %	–	5.59	46	4.95	Cell LXRβ efficacy ([4]; agonist mode): 3280 (28) %
CS(=O)(=O)c1cccc(N2CCN(CC3CCCOC3)[C@@H](c3ccccc3)C2)c1 (stereo partly drawn) [51-4, (2S)-4-(3-(methylsulfonyl)phenyl)-2-phenyl-1-((tetrahydro-2H-pyran-3-yl)methyl)piperazine]	< 5.48	6.26	< 4.30	< 4.70	–	< 4.70	–	–	–	pEC50 (LXR α LBD protein [6]; [9]): < 4.30
CS(=O)(=O)c1cccc(N2CCN(CC3CCOCC3)[C@@H](c3ccccc3)C2)c1 [51-5, (S)-4-(3-(methylsulfonyl)phenyl)-2-phenyl-1-((tetrahydro-2H-pyran-4-yl)methyl)piperazine]	< 5.48	–	< 4.30	< 4.70	–	< 4.70	–	–	–	pKi (LXR β LBD protein [2]; Biological Test Example 1): 5.99; pEC50 (LXR α LBD protein [6]; [9]): < 4.30

Reference: patent publication US10144715B2, “Piperazine derivatives as liver X receptor modulators” (priority 2014, dated 2018)
